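Values below derive from 48-hour exposures of cells grown in 96-well plates, with endpoints linearly interpolated between the two concentrations bracketing the appropriate inhibition level. At the GI50, growth is halved.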 Activity calls are given as the source filed them. No stated cut-off is given here; in the data, active = GI50 up to about 1.1 µM and inactive = higher.
Key:
Experiment in all cases: inhibition of tumour cell growth, NCI panel, 48 h
MDA-MB-435 = tested on: MDA-MB-435
MDA-MB-231 = tested on: MDA-MB-231
A498 = tested on: A498
T47D = tested on: T47D
PC-3 = tested on: PC-3
ACHN = tested on: ACHN
OVCAR-8 = tested on: OVCAR-8
HOP-92 = tested on: HOP-92
MCF7 = tested on: MCF7
NCI/ADR-RES = tested on: NCI/ADR-RES
MDA-N = tested on: MDA-N
HL-60 = tested on: HL-60
Hs-578T = tested on: Hs-578T
OVCAR-3 = tested on: OVCAR-3
HCT-15 = tested on: HCT-15
K562 = tested on: K562
DU-145 = tested on: DU-145
UACC-62 = tested on: UACC-62
BT-549 = tested on: BT-549

SMILES	GI50 (MDA-MB-435)	GI50 (MDA-MB-231)	GI50 (A498)	GI50 (T47D)	GI50 (PC-3)	GI50 (ACHN)	GI50 (OVCAR-8)	GI50 (HOP-92)	GI50 (MCF7)	GI50 (NCI/ADR-RES)	GI50 (MDA-N)	GI50 (HL-60)	GI50 (Hs-578T)	GI50 (OVCAR-3)	GI50 (HCT-15) [µM]	GI50 (K562)	GI50 (DU-145)	GI50 (UACC-62)	GI50 (BT-549)
CCOP(=O)(OCC)C(Cc1c[nH]c2ccccc12)C(=O)O (stereo not drawn)	> 100 µM (inactive)	> 100 µM (inactive)	> 100 µM (inactive)	> 100 µM (inactive)	> 100 µM (inactive)	> 100 µM (inactive)	> 100 µM (inactive)	> 100 µM (inactive)	37.2 µM (inactive)	> 100 µM (inactive)	> 100 µM (inactive)	> 100 µM (inactive)	> 100 µM (inactive)	> 100 µM (inactive)	> 100	> 100 µM (inactive)	> 100 µM (inactive)	–	–
CC(NC(=O)c1ccc(OP(=O)(OCC2=CC(=O)c3ccccc3C2=O)N(C)CCCCCl)cc1)c1ccc(OCC2CCCCC2)c(C(N)=O)c1 (stereo not drawn)	2.47 µM (inactive)	8.99 µM (inactive)	–	0.0891 µM (active)	14.2 µM (inactive)	12.7 µM (inactive)	13.4 µM (inactive)	0.0244 µM (active)	11.4 µM (inactive)	14.8 µM (inactive)	2.72 µM (inactive)	14.5 µM (inactive)	2.52 µM (inactive)	1.41 µM (inactive)	12.2	17.4 µM (inactive)	3.5 µM (inactive)	9.64 µM (inactive)	–
CCOC(=O)c1nc2ccc(C(F)(F)F)cc2nc1NCc1ccc(Cl)c(Cl)c1	23.6 µM (inactive)	30.2 µM (inactive)	30.2 µM (inactive)	44.5 µM (inactive)	22.8 µM (inactive)	22.5 µM (inactive)	37.1 µM (inactive)	14.6 µM (inactive)	30.4 µM (inactive)	47.1 µM (inactive)	57.4 µM (inactive)	41.5 µM (inactive)	20.8 µM (inactive)	23.3 µM (inactive)	36.1	80 µM (inactive)	–	30 µM (inactive)	37 µM (inactive)
CNNC(=NS(=O)(=O)c1cc(C#N)c(NNC)cc1S)NNC	–	–	> 10 µM (inactive)	> 10 µM (inactive)	> 10 µM (inactive)	> 10 µM (inactive)	> 10 µM (inactive)	> 10 µM (inactive)	> 10 µM (inactive)	> 10 µM (inactive)	> 10 µM (inactive)	> 10 µM (inactive)	> 10 µM (inactive)	> 10 µM (inactive)	> 10	> 10 µM (inactive)	> 10 µM (inactive)	–	> 10 µM (inactive)
CC(=O)OCCCCn1cnc2c(Cl)nc(Nc3ccccc3)nc21	> 100 µM (inactive)	> 100 µM (inactive)	> 100 µM (inactive)	> 100 µM (inactive)	> 100 µM (inactive)	> 100 µM (inactive)	> 100 µM (inactive)	–	> 100 µM (inactive)	> 100 µM (inactive)	> 100 µM (inactive)	> 100 µM (inactive)	> 100 µM (inactive)	> 100 µM (inactive)	> 100	> 100 µM (inactive)	> 100 µM (inactive)	> 100 µM (inactive)	> 100 µM (inactive)
O=C1c2ccccc2C(=O)c2cc(/N=N/c3c(O)ccc4ccccc34)ccc21	> 100 µM (inactive)	> 100 µM (inactive)	> 100 µM (inactive)	> 100 µM (inactive)	> 100 µM (inactive)	> 100 µM (inactive)	> 100 µM (inactive)	> 100 µM (inactive)	–	> 100 µM (inactive)	> 100 µM (inactive)	–	27.7 µM (inactive)	> 100 µM (inactive)	> 100	> 100 µM (inactive)	> 100 µM (inactive)	> 100 µM (inactive)	> 100 µM (inactive)
CCOC(=O)c1ccc(C(=O)C(C(C)=O)C(=O)OC(C)(C)C)[nH]1 (stereo not drawn)	> 100 µM (inactive)	> 100 µM (inactive)	> 100 µM (inactive)	> 100 µM (inactive)	> 100 µM (inactive)	> 100 µM (inactive)	> 100 µM (inactive)	–	> 100 µM (inactive)	> 100 µM (inactive)	> 100 µM (inactive)	> 100 µM (inactive)	> 100 µM (inactive)	> 100 µM (inactive)	> 100	> 100 µM (inactive)	> 100 µM (inactive)	> 100 µM (inactive)	> 100 µM (inactive)
O=[N+]([O-])/C=C/c1cn(CCCCCCCCn2cc(/C=C/[N+](=O)[O-])c3ccccc32)c2ccccc12	0.327 µM (active)	> 10 µM (inactive)	> 10 µM (inactive)	> 10 µM (inactive)	> 10 µM (inactive)	> 10 µM (inactive)	> 10 µM (inactive)	> 10 µM (inactive)	–	> 10 µM (inactive)	0.61 µM (active)	> 10 µM (inactive)	6.92 µM (inactive)	> 10 µM (inactive)	> 10	> 10 µM (inactive)	> 10 µM (inactive)	> 10 µM (inactive)	–
Cc1c2c(n(CCN(C)C)c1C)NN=C(C#N)S2(=O)=O	> 100 µM (inactive)	> 100 µM (inactive)	–	> 100 µM (inactive)	> 100 µM (inactive)	> 100 µM (inactive)	> 100 µM (inactive)	–	> 100 µM (inactive)	> 100 µM (inactive)	> 100 µM (inactive)	–	> 100 µM (inactive)	> 100 µM (inactive)	> 100	> 100 µM (inactive)	> 100 µM (inactive)	> 100 µM (inactive)	–
CCN(CC)c1ccc2cc(C(=O)Nc3nc(C45CC6CC(CC(C6)C4)C5)cs3)c(=O)oc2c1	> 100 µM (inactive)	> 100 µM (inactive)	> 100 µM (inactive)	–	> 100 µM (inactive)	> 100 µM (inactive)	> 100 µM (inactive)	> 100 µM (inactive)	> 100 µM (inactive)	> 100 µM (inactive)	> 100 µM (inactive)	> 100 µM (inactive)	> 100 µM (inactive)	> 100 µM (inactive)	> 100	> 100 µM (inactive)	> 100 µM (inactive)	–	> 100 µM (inactive)
COC(=O)C1CCC(=O)N1C(c1ccc2c(c1)OCO2)c1cc(OC)c(OC)c(OC)c1 (stereo not drawn)	> 100 µM (inactive)	> 100 µM (inactive)	> 100 µM (inactive)	–	> 100 µM (inactive)	> 100 µM (inactive)	> 100 µM (inactive)	> 100 µM (inactive)	> 100 µM (inactive)	–	> 100 µM (inactive)	> 100 µM (inactive)	> 100 µM (inactive)	> 100 µM (inactive)	> 100	> 100 µM (inactive)	> 100 µM (inactive)	> 100 µM (inactive)	> 100 µM (inactive)
O=C1OC(c2ccc(O)cc2)(c2ccc(O)cc2)c2ccc(Cl)c3cccc1c23.O=C1OC(c2ccc(O)cc2)(c2ccc(O)cc2)c2cccc3c(Cl)ccc1c23	9.46 µM (inactive)	10.7 µM (inactive)	19.1 µM (inactive)	–	3.48 µM (inactive)	13.9 µM (inactive)	14.4 µM (inactive)	24.2 µM (inactive)	13.6 µM (inactive)	11.7 µM (inactive)	11.8 µM (inactive)	–	12.1 µM (inactive)	11.5 µM (inactive)	10.8	21.2 µM (inactive)	75 µM (inactive)	10.1 µM (inactive)	11.8 µM (inactive)
Cc1ncc([N+](=O)[O-])n1CC[N+](C)([O-])CCCCn1ccnc1[N+](=O)[O-] (stereo not drawn)	> 100 µM (inactive)	> 100 µM (inactive)	> 100 µM (inactive)	> 100 µM (inactive)	> 100 µM (inactive)	> 100 µM (inactive)	> 100 µM (inactive)	–	> 100 µM (inactive)	> 100 µM (inactive)	> 100 µM (inactive)	> 100 µM (inactive)	> 100 µM (inactive)	> 100 µM (inactive)	> 100	> 100 µM (inactive)	> 100 µM (inactive)	> 100 µM (inactive)	> 100 µM (inactive)
COc1ccc(-c2cc(=O)c3c(OC)c(O)c(OC)cc3o2)cc1	42.4 µM (inactive)	23.6 µM (inactive)	30 µM (inactive)	23.1 µM (inactive)	–	30.5 µM (inactive)	56.6 µM (inactive)	20.9 µM (inactive)	42.7 µM (inactive)	29.1 µM (inactive)	47.3 µM (inactive)	52 µM (inactive)	40.4 µM (inactive)	34 µM (inactive)	35	52.4 µM (inactive)	49.3 µM (inactive)	30.8 µM (inactive)	55.3 µM (inactive)
C[C@]12CC[C@H](O[C@@H]3O[C@H](CO[C@@H]4O[C@H](CO)[C@@H](O)[C@H](O)[C@H]4O)[C@@H](O)[C@H](O)[C@H]3O)C[C@@H]1CC[C@@H]1[C@@H]2CC[C@]2(C)[C@@H](C3=CC(=O)OC3)CC[C@]12O [UZARIN]	31.8 µM (inactive)	> 80.2 µM (inactive)	24.9 µM (inactive)	31.1 µM (inactive)	28.2 µM (inactive)	8.57 µM (inactive)	31.8 µM (inactive)	29.4 µM (inactive)	–	15.4 µM (inactive)	29 µM (inactive)	20.2 µM (inactive)	19.5 µM (inactive)	23.3 µM (inactive)	18.2	24.2 µM (inactive)	13.3 µM (inactive)	33.7 µM (inactive)	6.71 µM (inactive)
